Results: ChEMBL document CHEMBL4184186, “Targeting protein-protein interaction between MLL1 and reciprocal proteins for leukemia therapy” (Bioorg Med Chem, 2018)

Legend:
[1] = biological target: T1, Menin (Homo sapiens, UniProt O00255); assay: Binding affinity to menin (unknown origin) by isothermal titration calorimetry
T1 sequence (O00255 whole entry): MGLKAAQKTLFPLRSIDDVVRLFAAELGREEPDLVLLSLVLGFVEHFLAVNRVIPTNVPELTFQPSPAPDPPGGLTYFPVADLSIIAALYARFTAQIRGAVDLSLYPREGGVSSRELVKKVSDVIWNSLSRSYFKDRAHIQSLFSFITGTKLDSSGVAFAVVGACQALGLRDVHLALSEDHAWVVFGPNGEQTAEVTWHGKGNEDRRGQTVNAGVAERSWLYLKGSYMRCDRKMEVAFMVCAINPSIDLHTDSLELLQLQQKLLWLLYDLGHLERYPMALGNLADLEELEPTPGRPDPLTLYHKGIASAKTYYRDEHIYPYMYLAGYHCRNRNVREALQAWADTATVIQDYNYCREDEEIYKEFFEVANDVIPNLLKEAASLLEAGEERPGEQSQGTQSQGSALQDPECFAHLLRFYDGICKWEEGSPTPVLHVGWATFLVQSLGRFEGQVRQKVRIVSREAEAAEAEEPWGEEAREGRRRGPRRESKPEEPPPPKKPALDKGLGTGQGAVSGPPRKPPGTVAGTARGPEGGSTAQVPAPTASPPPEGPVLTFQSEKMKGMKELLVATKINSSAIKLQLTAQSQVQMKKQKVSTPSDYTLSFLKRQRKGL

[2] = biological target: T1, Menin; assay: Displacement of FITC-MBM1 from full length human menin measured after 1 hr by fluorescence polarization assay
[3] = biological target: Histone-lysine N-methyltransferase 2A (Homo sapiens, UniProt Q03164); assay: Inhibition of MLL1 binding to N-terminal His-tagged […] 23 deletion mutant (24 to 334 residues) (unknown origin) expressed in Escherichia coli Rosetta 2 (DE3) pLysS cells by fluorescence polarization assay
[4] = biological target: T1, Menin
Description: Displacement of FITC-MBM1 from menin (unknown origin) measured after 1 hr by fluorescence polarization assay

[5] = biological target: T1, Menin; assay: Displacement of FITC-MBM1 from full length human menin measured after 2 hrs by fluorescence polarization assay

Sequence of Histone-lysine N-methyltransferase 2A (Q03164 1-2718 limits assumed, stated change not applied): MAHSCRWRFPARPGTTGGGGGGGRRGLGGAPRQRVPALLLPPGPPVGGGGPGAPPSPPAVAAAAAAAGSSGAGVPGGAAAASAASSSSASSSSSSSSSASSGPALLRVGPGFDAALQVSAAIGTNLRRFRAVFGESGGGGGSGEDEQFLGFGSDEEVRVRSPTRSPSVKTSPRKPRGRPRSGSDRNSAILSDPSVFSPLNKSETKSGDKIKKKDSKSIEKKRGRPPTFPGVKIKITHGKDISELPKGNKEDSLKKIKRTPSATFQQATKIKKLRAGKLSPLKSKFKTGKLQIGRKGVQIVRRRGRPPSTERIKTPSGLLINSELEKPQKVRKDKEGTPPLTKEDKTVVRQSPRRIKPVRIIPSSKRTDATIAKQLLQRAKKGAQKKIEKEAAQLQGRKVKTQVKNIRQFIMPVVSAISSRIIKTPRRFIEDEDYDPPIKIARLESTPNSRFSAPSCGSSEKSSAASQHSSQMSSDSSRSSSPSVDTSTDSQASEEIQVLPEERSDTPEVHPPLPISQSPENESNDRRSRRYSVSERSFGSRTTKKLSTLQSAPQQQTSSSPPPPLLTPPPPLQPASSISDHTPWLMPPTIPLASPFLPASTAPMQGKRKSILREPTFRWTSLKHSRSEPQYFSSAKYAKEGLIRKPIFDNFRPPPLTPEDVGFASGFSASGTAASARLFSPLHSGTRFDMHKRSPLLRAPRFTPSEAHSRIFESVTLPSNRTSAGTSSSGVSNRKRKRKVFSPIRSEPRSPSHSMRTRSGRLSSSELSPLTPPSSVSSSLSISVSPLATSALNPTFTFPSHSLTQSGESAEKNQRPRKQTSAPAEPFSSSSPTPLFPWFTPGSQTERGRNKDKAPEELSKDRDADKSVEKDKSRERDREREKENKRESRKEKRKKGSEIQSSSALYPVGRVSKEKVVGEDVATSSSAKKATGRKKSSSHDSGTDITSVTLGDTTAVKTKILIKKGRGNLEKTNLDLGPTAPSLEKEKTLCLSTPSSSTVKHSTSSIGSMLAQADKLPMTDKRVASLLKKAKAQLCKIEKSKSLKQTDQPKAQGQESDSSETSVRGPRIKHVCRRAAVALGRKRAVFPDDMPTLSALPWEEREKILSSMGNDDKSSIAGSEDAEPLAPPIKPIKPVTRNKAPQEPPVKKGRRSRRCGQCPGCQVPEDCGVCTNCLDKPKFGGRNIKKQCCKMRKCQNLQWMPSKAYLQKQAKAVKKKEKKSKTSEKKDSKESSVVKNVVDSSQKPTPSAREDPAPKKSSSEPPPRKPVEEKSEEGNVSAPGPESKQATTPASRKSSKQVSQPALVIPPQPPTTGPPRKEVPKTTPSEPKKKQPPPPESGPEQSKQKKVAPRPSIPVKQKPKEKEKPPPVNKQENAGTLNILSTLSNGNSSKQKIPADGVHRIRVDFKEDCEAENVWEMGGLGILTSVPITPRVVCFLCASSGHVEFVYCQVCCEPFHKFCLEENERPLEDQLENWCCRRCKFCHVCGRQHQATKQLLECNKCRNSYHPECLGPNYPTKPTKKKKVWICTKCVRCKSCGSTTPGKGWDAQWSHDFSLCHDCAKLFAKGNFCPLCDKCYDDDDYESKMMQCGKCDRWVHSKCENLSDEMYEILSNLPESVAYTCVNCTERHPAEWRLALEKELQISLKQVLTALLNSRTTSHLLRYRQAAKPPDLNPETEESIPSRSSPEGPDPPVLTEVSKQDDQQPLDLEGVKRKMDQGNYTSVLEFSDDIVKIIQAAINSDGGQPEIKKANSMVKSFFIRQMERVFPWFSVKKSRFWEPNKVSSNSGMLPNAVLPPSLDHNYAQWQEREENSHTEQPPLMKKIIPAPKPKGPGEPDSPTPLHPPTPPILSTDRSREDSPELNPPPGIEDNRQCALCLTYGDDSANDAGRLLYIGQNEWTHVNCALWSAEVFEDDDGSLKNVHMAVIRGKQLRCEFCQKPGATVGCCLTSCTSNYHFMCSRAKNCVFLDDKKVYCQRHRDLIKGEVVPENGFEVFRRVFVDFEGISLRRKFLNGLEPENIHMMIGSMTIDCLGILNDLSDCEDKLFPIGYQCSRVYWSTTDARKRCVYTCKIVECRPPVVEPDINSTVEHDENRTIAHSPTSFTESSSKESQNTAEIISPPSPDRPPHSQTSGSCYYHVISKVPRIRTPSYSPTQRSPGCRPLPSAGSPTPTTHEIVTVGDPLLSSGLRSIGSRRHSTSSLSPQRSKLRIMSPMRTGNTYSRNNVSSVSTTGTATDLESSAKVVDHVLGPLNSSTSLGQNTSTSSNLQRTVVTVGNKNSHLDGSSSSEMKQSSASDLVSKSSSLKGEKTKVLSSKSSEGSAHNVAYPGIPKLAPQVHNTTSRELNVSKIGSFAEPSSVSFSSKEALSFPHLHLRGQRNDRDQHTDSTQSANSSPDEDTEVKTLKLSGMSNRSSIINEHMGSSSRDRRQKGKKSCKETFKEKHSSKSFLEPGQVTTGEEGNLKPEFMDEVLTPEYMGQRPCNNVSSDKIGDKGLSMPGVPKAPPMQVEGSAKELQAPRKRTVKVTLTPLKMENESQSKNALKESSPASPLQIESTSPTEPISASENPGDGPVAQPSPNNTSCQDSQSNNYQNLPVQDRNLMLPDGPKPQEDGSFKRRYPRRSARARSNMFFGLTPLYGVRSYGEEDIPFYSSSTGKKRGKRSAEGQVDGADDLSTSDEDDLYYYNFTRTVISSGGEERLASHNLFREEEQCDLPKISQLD
Sequence of Histone-lysine N-methyltransferase 2A (Q03164 2719-3969 limits assumed, stated change not applied): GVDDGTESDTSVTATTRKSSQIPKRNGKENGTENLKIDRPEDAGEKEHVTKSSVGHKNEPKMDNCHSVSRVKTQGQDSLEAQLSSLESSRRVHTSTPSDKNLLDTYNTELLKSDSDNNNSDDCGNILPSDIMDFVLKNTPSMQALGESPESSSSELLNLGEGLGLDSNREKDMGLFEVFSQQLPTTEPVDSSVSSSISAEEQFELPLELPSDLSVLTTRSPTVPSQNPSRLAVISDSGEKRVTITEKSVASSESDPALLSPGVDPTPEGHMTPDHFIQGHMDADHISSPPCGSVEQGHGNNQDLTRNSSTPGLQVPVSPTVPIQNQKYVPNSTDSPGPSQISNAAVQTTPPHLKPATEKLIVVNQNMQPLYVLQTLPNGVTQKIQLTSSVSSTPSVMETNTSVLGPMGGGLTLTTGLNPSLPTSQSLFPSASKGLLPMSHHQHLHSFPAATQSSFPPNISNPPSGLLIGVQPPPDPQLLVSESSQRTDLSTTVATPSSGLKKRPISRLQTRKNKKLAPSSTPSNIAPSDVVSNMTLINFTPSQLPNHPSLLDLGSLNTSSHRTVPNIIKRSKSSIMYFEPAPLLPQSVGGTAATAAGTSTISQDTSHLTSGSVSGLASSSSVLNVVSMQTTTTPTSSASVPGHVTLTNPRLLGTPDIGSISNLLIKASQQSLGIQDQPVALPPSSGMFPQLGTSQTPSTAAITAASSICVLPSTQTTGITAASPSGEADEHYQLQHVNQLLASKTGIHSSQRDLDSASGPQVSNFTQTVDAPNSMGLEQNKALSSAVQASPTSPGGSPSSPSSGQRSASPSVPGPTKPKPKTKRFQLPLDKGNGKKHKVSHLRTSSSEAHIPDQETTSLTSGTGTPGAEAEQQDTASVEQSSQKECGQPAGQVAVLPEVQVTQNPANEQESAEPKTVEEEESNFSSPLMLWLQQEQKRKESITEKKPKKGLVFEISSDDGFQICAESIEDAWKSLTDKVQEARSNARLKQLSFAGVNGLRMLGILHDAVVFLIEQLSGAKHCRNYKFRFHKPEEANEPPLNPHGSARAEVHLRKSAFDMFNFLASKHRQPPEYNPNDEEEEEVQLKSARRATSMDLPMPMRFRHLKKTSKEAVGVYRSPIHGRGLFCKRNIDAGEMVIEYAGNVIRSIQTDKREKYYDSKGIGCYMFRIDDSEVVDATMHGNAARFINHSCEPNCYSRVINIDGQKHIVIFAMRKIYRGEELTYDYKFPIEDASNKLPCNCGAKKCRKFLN

`Cc1c(CN2CCC(Nc3ncnc4sc(CC(F)(F)F)cc34)CC2)ccc2c1cc(C#N)n2Cc1cn[nH]c1` was tested. Which Kd [1] did it give?
Its Kd is 9.3 nM.

And the IC50 [2]?
The IC50 was 14.7 nM.

With `CCC(CC)(NC(=O)C(C)C)C(=O)N[C@@H](CCCNC(=N)N)C(=O)NC1(C(=O)NC(c2ccc(Cl)cc2)c2ccc(Cl)cc2)CCCC1` as the compound, how does the IC50 [3] read?
The IC50 was 4.5 nM.

And the Ki [3]?
Its Ki is less than 1 nM.

For `O=c1cccc2n1[C@@H]1C[C@H](C2)CN(CC(O)CCCc2ccccc2)C1` (stereo partly drawn), which IC50 [4] is on record?
The IC50 was 1 nM.

With `NCC(CCN1CC=C(c2ccc(Cl)cc2)CC1)(c1ccccc1)C1CCCC1` (stereo not drawn) as the compound, how does the IC50 [5] read?
Its IC50 is 830 nM.

And the Ki [5]?
Its Ki is 80 nM.

`CN(C)C(=O)C(CCN1CCC(O)(c2ccc(Cl)cc2)CC1)(c1ccccc1)c1ccccc1` [LOPERAMIDE] was tested. Which IC50 [5] did it give?
The IC50 was 69000 nM.
